Drawing on paper PMC3201797 (Bioorganic & medicinal chemistry letters, 2010), this text covers IC50 for three substances.

One may read the IC50 as the concentration at which inhibition is half-maximal.

Holding throughout (format): biochemical
In test [1] the target is T1, prostate-specific membrane antigen (PSMA) (Homo sapiens, UniProt Q04609). As to the kind of experiment: PSMA enzyme inhibition assay with purified PSMA.
The target in test [2] is T1, prostate-specific membrane antigen (PSMA). As to the kind of experiment: PSMA enzyme inhibition assay.
For test [3] the target is unchanged. As to the kind of experiment: PSMA enzyme inhibition assay with purified PSMA. This is another data set of the same source.

T1 sequence (Q04609 whole entry): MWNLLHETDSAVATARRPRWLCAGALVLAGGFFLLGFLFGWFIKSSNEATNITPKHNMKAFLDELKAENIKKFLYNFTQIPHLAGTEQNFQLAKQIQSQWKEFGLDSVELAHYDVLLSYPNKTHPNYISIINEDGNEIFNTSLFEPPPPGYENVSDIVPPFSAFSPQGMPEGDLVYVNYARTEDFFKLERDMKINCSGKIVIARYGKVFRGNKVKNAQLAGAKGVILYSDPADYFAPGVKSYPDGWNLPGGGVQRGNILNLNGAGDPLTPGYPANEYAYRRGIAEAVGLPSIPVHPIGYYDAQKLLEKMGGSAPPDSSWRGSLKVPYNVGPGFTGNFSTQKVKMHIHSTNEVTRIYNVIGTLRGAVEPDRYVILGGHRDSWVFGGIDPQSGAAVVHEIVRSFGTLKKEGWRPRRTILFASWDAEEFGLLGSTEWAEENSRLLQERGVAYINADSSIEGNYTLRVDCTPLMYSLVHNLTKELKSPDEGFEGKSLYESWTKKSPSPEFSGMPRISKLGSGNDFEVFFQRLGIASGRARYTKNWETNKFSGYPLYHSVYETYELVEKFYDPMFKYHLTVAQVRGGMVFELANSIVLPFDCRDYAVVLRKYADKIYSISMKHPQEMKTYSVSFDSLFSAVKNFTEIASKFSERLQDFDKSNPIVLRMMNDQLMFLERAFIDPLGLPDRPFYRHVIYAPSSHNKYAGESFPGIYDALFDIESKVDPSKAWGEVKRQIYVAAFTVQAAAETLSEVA

As to CTT-54.2, the IC50 in test [1] worked out at 144 nM. That is a sub-micromolar value.

In test [2], Cy5.5 free acid came in with an IC50 of 6.1 µM.

Cy5.5-CTT-54.2 gave an IC50 in test [3] of 0.55 nM.
